Measurements as given in ChEMBL document CHEMBL6134798, “Classifying covalent protein binders by their targeted binding site” (Bioorg Med Chem Lett, 2025).
One block for each molecule: values may come before it.

Assays:
[1] = target: Epidermal growth factor receptor (Homo sapiens, UniProt P00533); assay: Inhibition of EGFR (unknown origin)
K562 = assay: Growth inhibition of human K562 cells; type: functional
Secernin-3 = target: T1, Secernin-3 (Homo sapiens, UniProt Q0VDG4); assay: Inhibition of full length human SCRN3 transfected in HEK293T cells; type: cell-based
T1 sequence (Q0VDG4 whole entry): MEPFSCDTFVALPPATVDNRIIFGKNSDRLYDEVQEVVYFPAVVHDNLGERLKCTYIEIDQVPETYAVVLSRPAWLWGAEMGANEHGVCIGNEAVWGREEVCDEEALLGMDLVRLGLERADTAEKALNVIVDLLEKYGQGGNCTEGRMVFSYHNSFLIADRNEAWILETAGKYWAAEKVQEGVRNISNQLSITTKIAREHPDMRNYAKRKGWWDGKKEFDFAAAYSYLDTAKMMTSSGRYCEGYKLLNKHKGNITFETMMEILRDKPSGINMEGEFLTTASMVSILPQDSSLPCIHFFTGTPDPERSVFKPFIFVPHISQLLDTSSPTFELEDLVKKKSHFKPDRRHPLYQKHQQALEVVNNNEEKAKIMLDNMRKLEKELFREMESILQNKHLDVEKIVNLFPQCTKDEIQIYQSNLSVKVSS

Sequence of Epidermal growth factor receptor (P00533 whole entry): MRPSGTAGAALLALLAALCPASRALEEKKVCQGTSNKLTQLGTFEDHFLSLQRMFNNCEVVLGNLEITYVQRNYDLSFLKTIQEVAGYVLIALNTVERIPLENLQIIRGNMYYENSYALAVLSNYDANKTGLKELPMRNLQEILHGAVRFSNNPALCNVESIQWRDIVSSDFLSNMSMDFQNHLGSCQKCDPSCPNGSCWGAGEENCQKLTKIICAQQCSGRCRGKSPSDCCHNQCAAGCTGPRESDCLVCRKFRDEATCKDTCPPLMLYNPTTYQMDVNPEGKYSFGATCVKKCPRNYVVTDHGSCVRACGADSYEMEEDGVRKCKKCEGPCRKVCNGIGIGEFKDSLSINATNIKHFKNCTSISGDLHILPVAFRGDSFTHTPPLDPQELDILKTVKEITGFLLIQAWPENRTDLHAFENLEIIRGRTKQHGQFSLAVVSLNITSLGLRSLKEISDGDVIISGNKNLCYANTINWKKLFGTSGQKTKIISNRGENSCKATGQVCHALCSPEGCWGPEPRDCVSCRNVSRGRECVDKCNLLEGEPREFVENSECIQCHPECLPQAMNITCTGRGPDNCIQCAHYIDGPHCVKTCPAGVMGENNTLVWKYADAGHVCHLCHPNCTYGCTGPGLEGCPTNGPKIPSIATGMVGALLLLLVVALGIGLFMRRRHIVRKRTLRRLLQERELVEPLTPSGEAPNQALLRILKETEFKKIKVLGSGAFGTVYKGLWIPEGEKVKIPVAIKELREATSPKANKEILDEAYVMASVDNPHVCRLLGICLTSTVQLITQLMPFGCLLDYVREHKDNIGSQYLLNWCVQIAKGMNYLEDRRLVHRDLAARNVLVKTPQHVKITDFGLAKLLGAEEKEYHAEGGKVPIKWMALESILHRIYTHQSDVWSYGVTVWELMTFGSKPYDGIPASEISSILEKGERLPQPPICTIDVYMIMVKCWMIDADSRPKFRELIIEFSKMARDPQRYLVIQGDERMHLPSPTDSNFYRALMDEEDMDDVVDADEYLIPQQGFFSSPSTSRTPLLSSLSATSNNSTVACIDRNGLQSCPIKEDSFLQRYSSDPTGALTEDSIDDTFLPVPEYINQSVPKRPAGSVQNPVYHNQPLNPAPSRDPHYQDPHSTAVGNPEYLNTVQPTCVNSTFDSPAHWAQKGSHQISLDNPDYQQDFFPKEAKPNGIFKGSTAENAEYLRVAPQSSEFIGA

- IC50 [1]: 120 nM
Structure (SMILES): C=CC(=O)N1CCN(c2ncnc3c(F)c(-c4c(O)cccc4F)c(Cl)cc23)CC1

- GI50 (K562): 55.6 nM
Structure (SMILES): COc1cc(O)c(C=O)cc1-c1c[nH]c2ncc(-c3cncc(C(=O)N(C)C)c3)cc12

Structure (SMILES): NNc1ccc2ccccc2c1
- IC50 (Secernin-3): 200 nM
